Experimental data from US9974782B2, “Phosphodiesterase inhibitors and uses thereof” (THE TRUSTEES OF COLUMBIA UNIVERSITY IN THE CITY OF NEW YORK, priority 2008, dated 2018).
Entries after “also recorded” stand apart in the source; their conditions may differ.

How the values were obtained:
APP/PS1 mice = test: Radial-arm water maze (spatial working memory); format: in vivo, mouse; conditions: for minimum time needed for a positive effect on spatial working memory: 3 mg/kg
Excerpt: Next, the effect of treatment with sildenafil was examined on spatial working memory, a type of short-term memory that can be studied with the radial-arm water maze test. […] Mice were required to learn and memorize the location of a hidden platform in one of the arms of a maze with respect to spatial cues. […] However, daily injections of sildenafil for 3 weeks immediately after the 4th acquisition trial ameliorated the behavioural performance of APP/PS1 mice (FIG. 2B).
The effects of one course of 3-week treatment with sildenafil on spatial working memory were next tested using the radial-arm water-maze task. There was a difference between the number of errors made by vehicle-treated APP/PS1 and WT mice (FIG. 3B)^A12. Administration of sildenafil for 3 weeks, 9-12 weeks prior to the testing, reduced the gap between the two groups without affecting performance of the WT animals (FIG. 3B).
Three-month-old APP/PS1 and WT mice were separated into 4 groups: APP/PS1 mice treated with vehicle, APP/PS1 mice treated with PDE inhibitor, WT mice treated with vehicle, and WT mice treated with PDE inhibitor. […] In the remaining experiments, sildenafil was injected via i.p. The drug was administered either acutely or for 1 course of 3 week treatment. For assessment of the short-term effects of sildenafil, the drug was given at a concentration of 3 mg/kg immediately after the training. This dose yields concentrations of ˜2.5 μM cGMP in the hippocampus^A53. For assessment of long-term effects, sildenafil was given daily by i.p. injection at a concentration of 3 mg/kg for 3 weeks and then treatment was stopped for 9-12 weeks prior to behavioral testing. Contextual and cued fear conditioning was performed for 3 days. Radial-arm water-maze (RAWM) was performed for 3 weeks. Then, the animals were sacrificed for electrophysiological recordings. To decide the time of administration of sildenafil in the acute experiments, a series of studies was performed in which the inhibitor was injected i.p. at 5 min before the electric shock or at 5 min before the first acquisition trial with the radial arm water maze. […] Thus, all the behavioral experiments on the acute effects of sildenafil reported in the result section were performed with injection after the training.
This is a type of short-term memory that can be studied with the RAWM test^12. Briefly, the RAWM consisted of a white tank (120 cm diameter) filled with water (24-25° C.) and made opaque by the addition of non-toxic white paint. Within the tank walls were positioned so as to produce six arms, radiating from a central area. Spatial cues were presented on the walls of the testing room. At the end of one of the arms was positioned a clear 10 cm submerged (1.5 cm) platform that remained in the same location for every trial in one day, but was moved about randomly from day to day. On each trial the mouse started the task from a different randomly chosen arm. […] Each trial lasted 1 min and errors were counted each time the mouse entered the wrong arm or needed more than 20 sec to reach the platform. After each error the mouse was pulled back to the start arm for that trial. After 4 consecutive acquisition trials, the mouse was placed in its home cage for 30 min, then returned to the maze and administered a 5th retention trial. Testing was considered completed as the WT mice made the same number of errors at the 4th and 5th trial. The scores for each mouse on the last three days of testing were averaged and used for statistical analysis.

[1] = test system: hippocampal slices treated with Aβ42; test: LTP in hippocampal slices treated with 200 nM oligomeric Aβ42; format: cell-based, mouse; conditions: YF012403 50 nM for 10 min prior to the θ-burst
Procedure: Following cutting hippocampal slices were transferred to a recording chamber where they were maintained at 29° C. and perfused with artificial cerebrospinal fluid (ACSF) continuously bubbled with 95% O2 and 5% CO2. The ACSF composition in mM was: 124.0 NaCl, 4.4 KCl, 1.0 Na2HPO4, 25.0 NaHCO3, 2.0 CaCl2, 2.0 MgSO4, 10.0 glucose. CA1 fEPSPs were recorded by placing both the stimulating and the recording electrodes in CA1 stratum radiatum. BST was assayed either by plotting the stimulus voltages against slopes of fEPSP, or by plotting the peak amplitude of the fiber volley against the slope of the fEPSP. A 15 min baseline was recorded every min at an intensity that evokes a response ˜35% of the maximum evoked response. LTP was induced using q-burst stimulation (4 pulses at 100 Hz, with the bursts repeated at 5 Hz and each tetanus including 3 ten-burst trains separated by 15 sec). Responses were recorded for 1 hr after tetanization and measured as field-excitatory-post-synaptic potential (fEPSP) slope expressed as percentage of baseline.
In these experiments YF012403 (the cyclopropyl lead compound) was directly given to the hippocampal slices through the perfusion system for 10 min prior to the theta burst. Aβ42 was given for 20 minutes prior to the theta burst. Oligomeric Aβ42 was prepared as described previously (Stine et al., 2003). […]

[2] = treated at 3 months, tested at 6-8 months
[3] = 3 month-old APP/PS1, 3 mg/Kg i.p.
[4] = APP/PS1, 3 mg/Kg i.p. for 3 weeks at 3 months, tested 9-12 weeks later
[5] = WT, 3 mg/Kg i.p. for 3 weeks at 3 months, tested 9-12 weeks later

SMILES: COc1ccc(CNc2c(CO)cnc3c(C4CC4)cc(C#N)cc23)cc1Cl [YF012403, 4-(3-chloro-4-methoxybenzylamino)-8-cyclopropyl-3-(hydroxymethyl)-quinoline-6-carbonitrile]
- effect on spatial working memory (RAWM) in words (APP/PS1 mice; APP/PS1 (transgenic) mice): attenuated
- effect on LTP deficit in Aβ42-treated slices in words [1]: ameliorates the LTP deficit; also recorded: ameliorated; also recorded: reverses LTP impairment

SMILES: CCCc1nn(C)c2c(=O)[nH]c(-c3cc(S(=O)(=O)N4CCN(C)CC4)ccc3OCC)nc12 [sildenafil, 5-[2-ethoxy-5-(4-methyl-1-piperazinylsulphonyl)phenyl]-1-methyl-3-n-propyl-1,6-dihydro-7H-pyrazolo[4,3-d]pyrimidin-7-one]
- minimum time needed for a positive effect on spatial working memory (APP/PS1 mice; [2]): 2 weeks
- minimum time needed for a positive effect on spatial working memory (APP/PS1 mice; 3-month-old APP/PS1): 2 weeks
- minimum concentration needed to improve spatial working memory (APP/PS1 mice; 3-month-old APP/PS1, for 3 weeks): 3 mg/kg
- RAWM errors, recall trial R (APP/PS1 mice; [3]): 3.57±0.31 errors
- RAWM errors, trial A1 (APP/PS1 mice; [3]): 5.87±0.22 errors
- RAWM errors, trial A4 (APP/PS1 mice; [3]): 3.39±0.39 errors
- RAWM errors, recall trial R (APP/PS1 mice; 3 month-old WT, 3 mg/Kg i.p.): 1.9±0.35 errors
- RAWM errors, trial A1 (APP/PS1 mice; 3 month-old WT, 3 mg/Kg i.p.): 5.5±0.23 errors
- RAWM errors, trial A4 (APP/PS1 mice; 3 month-old WT, 3 mg/Kg i.p.): 1.5±0.21 errors
- RAWM errors, recall trial R (APP/PS1 mice; [4]): 3±0.75 errors
- RAWM errors, trial A1 (APP/PS1 mice; [4]): 6.16±0.39 errors
- RAWM errors, trial A2 (APP/PS1 mice; [4]): 4.16±0.53 errors
- RAWM errors, trial A3 (APP/PS1 mice; [4]): 3.5±0.41 errors
- RAWM errors, trial A4 (APP/PS1 mice; [4]): 2.83±0.61 errors
- RAWM errors in the retention trial (APP/PS1 mice; APP/PS1, injected i.p. 5 min before the first acquisition trial): ~5 errors
- RAWM errors, recall trial R (APP/PS1 mice; [5]): 2.33±0.36 errors
- RAWM errors, trial A1 (APP/PS1 mice; [5]): 6±0.29 errors
- RAWM errors, trial A2 (APP/PS1 mice; [5]): 3.22±0.56 errors
- RAWM errors, trial A3 (APP/PS1 mice; [5]): 2.5±0.36 errors
- RAWM errors, trial A4 (APP/PS1 mice; [5]): 1.83±0.16 errors
- minimum concentration needed to improve spatial working memory (APP/PS1 mice; [2]): 3 mg/kg
